Source: patent US10131652B2, “Pyrimidinyloxy benzene derivatives as herbicides” (E. I. DU PONT DE NEMOURS AND COMPANY, priority 2014, dated 2018)
Where two headings read alike, the source gives them in different places.

Assays:
Format in all cases: in vivo
[1] = system: oilseed rape (Brassica napus); test: Test E pre-/postemergence plant response; details: scale 0 to 100, read-out: Plant response rating, Oilseed Rape; for plant injury at 16 g/ha: 16 g ai/ha; for plant injury at 31 g/ha: 31 g ai/ha; for plant injury at 62 g/ha: 62 g ai/ha; for plant injury at 125 g/ha: 125 g ai/ha
Summary of the method: (§1)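 Visual scores on a 0–100 scale (100 = complete control) were assigned against untreated controls 7–21 days after treatment in a controlled environment. Compounds, formulated with solvent plus surfactant, were applied to pre-emergence silt-loam sowings or to 1- to 4-leaf plants (2–18 cm) in potting medium.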

[2] = system: wild buckwheat (Polygonum convolvulus); test: Test E pre-/postemergence plant response; details: Fallopia convolvulus, scale 0 to 100, read-out: Plant response rating, Buckwheat, Wild; for pest or weed control at 16 g/ha: 16 g ai/ha; for pest or weed control at 31 g/ha: 31 g ai/ha; for pest or weed control at 62 g/ha: 62 g ai/ha; for pest or weed control at 125 g/ha: 125 g ai/ha
Summary of the method: as §1

[3] = system: speedwell (bird's-eye speedwell, Veronica persica); test: Test E pre-/postemergence plant response; details: scale 0 to 100, read-out: Plant response rating, Speedwell; for pest or weed control at 16 g/ha: 16 g ai/ha; for pest or weed control at 62 g/ha: 62 g ai/ha; for pest or weed control at 125 g/ha: 125 g ai/ha
Summary of the method: as §1

[4] = system: field violet (Viola arvensis); test: Test E pre-/postemergence plant response; details: scale 0 to 100, read-out: Plant response rating, Field Violet; for pest or weed control at 16 g/ha: 16 g ai/ha; for pest or weed control at 31 g/ha: 31 g ai/ha; for pest or weed control at 62 g/ha: 62 g ai/ha; for pest or weed control at 125 g/ha: 125 g ai/ha
Summary of the method: as §1

wild oat (Avena fatua) = test: Test E pre-/postemergence plant response; details: scale 0 to 100, read-out: Plant response rating, Oat, Wild; for pest or weed control at 16 g/ha: 16 g ai/ha; for pest or weed control at 31 g/ha: 31 g ai/ha; for pest or weed control at 62 g/ha: 62 g ai/ha; for pest or weed control at 125 g/ha: 125 g ai/ha
Summary of the method: as §1

[5] = system: wild mustard (Sinapis arvensis); test: Test E pre-/postemergence plant response; details: Brassica, scale 0 to 100, read-out: Plant response rating, Mustard, Wild; for pest or weed control at 16 g/ha: 16 g ai/ha; for pest or weed control at 31 g/ha: 31 g ai/ha; for pest or weed control at 62 g/ha: 62 g ai/ha; for pest or weed control at 125 g/ha: 125 g ai/ha
Summary of the method: as §1

[6] = system: green foxtail (Setaria viridis); test: Test E pre-/postemergence plant response; details: scale 0 to 100, read-out: Plant response rating, Foxtail, Green; for pest or weed control at 16 g/ha: 16 g ai/ha; for pest or weed control at 31 g/ha: 31 g ai/ha; for pest or weed control at 62 g/ha: 62 g ai/ha; for pest or weed control at 125 g/ha: 125 g ai/ha
Summary of the method: as §1

[7] = system: small-flower umbrella sedge (Cyperus difformis); test: Test D flooded paddy test plant response; details: Flood (flooded paddy test), visual rating on scale 0 to 100 (0 no effect, 100 complete control), 13 to 15 days
Summary of the method: (§2)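 Plants at 2-leaf stage in pots flooded 3 cm above soil; compounds applied directly into paddy water, depth kept throughout. After 13-15 days in greenhouse, visual rating against controls on 0-100 scale (100 = complete control).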

[8] = system: barnyardgrass (Echinochloa crus-galli); test: Test D flooded paddy test plant response; details: Flood (flooded paddy test), visual rating on scale 0 to 100 (0 no effect, 100 complete control), 13 to 15 days
Summary of the method: as §2

rice (Oryza sativa) = test: Test D flooded paddy test plant response; details: Flood (flooded paddy test), visual rating on scale 0 to 100 (0 no effect, 100 complete control), 13 to 15 days
Summary of the method: as §2

[9] = system: ducksalad (Heteranthera limosa); test: Test D flooded paddy test plant response; details: Flood (flooded paddy test), visual rating on scale 0 to 100 (0 no effect, 100 complete control), 13 to 15 days
Summary of the method: as §2

Fc1cccc(Oc2ncc(Cl)cn2)c1-c1cc(C(F)F)no1 [Compound 144, 5-chloro-2-[2-[3-(difluoromethyl)-5-isoxazolyl]-3-fluorophenoxy]pyrimidine]
plant injury at 16 g/ha ([1]; post-emergence, Postemergence): 100% | plant injury at 31 g/ha ([1]; post-emergence, Postemergence): 100% | plant injury at 62 g/ha ([1]; post-emergence, Postemergence): 100% | plant injury at 125 g/ha ([1]; post-emergence, Postemergence): 100% | plant injury at 16 g/ha ([1]; pre-emergence, Preemergence): 35% | plant injury at 31 g/ha ([1]; pre-emergence, Preemergence): 80% | plant injury at 62 g/ha ([1]; pre-emergence, Preemergence): 100% | plant injury at 125 g/ha ([1]; pre-emergence, Preemergence): 100% | pest or weed control at 16 g/ha ([2]; post-emergence, Postemergence): 100% | pest or weed control at 31 g/ha ([2]; post-emergence, Postemergence): 95% | pest or weed control at 62 g/ha ([2]; post-emergence, Postemergence): 100% | pest or weed control at 125 g/ha ([2]; post-emergence, Postemergence): 100% | pest or weed control at 16 g/ha ([2]; pre-emergence, Preemergence): 85% | pest or weed control at 31 g/ha ([2]; pre-emergence, Preemergence): 100% | pest or weed control at 62 g/ha ([2]; pre-emergence, Preemergence): 100% | pest or weed control at 125 g/ha ([2]; pre-emergence, Preemergence): 100% | pest or weed control at 16 g/ha ([3]; post-emergence, Postemergence): 100% | pest or weed control at 31 g/ha ([3]; post-emergence, 31 g ai/ha, Postemergence): 100% | pest or weed control at 62 g/ha ([3]; post-emergence, Postemergence): 100% | pest or weed control at 125 g/ha ([3]; post-emergence, Postemergence): 100% | pest or weed control at 16 g/ha ([3]; pre-emergence, Preemergence): 100% | pest or weed control at 62 g/ha ([3]; pre-emergence, Preemergence): 100% | pest or weed control at 125 g/ha ([3]; pre-emergence, Preemergence): 100% | pest or weed control at 16 g/ha ([4]; post-emergence, Postemergence): 95% | pest or weed control at 31 g/ha ([4]; post-emergence, Postemergence): 90% | pest or weed control at 62 g/ha ([4]; post-emergence, Postemergence): 100% | pest or weed control at 125 g/ha ([4]; post-emergence, Postemergence): 100% | pest or weed control at 16 g/ha ([4]; pre-emergence, Preemergence): 95% | pest or weed control at 31 g/ha ([4]; pre-emergence, Preemergence): 100% | pest or weed control at 62 g/ha ([4]; pre-emergence, Preemergence): 100% | pest or weed control at 125 g/ha ([4]; pre-emergence, Preemergence): 100% | pest or weed control at 16 g/ha (wild oat (Avena fatua); post-emergence, Postemergence): 20% | pest or weed control at 31 g/ha (wild oat (Avena fatua); post-emergence, Postemergence): 25% | pest or weed control at 62 g/ha (wild oat (Avena fatua); post-emergence, Postemergence): 65% | pest or weed control at 125 g/ha (wild oat (Avena fatua); post-emergence, Postemergence): 90% | pest or weed control at 16 g/ha (wild oat (Avena fatua); pre-emergence, Preemergence): 35% | pest or weed control at 31 g/ha (wild oat (Avena fatua); pre-emergence, Preemergence): 30% | pest or weed control at 62 g/ha (wild oat (Avena fatua); pre-emergence, Preemergence): 65% | pest or weed control at 125 g/ha (wild oat (Avena fatua); pre-emergence, Preemergence): 75% | pest or weed control at 16 g/ha ([5]; post-emergence, Postemergence): 100% | pest or weed control at 31 g/ha ([5]; post-emergence, Postemergence): 100% | pest or weed control at 62 g/ha ([5]; post-emergence, Postemergence): 100% | pest or weed control at 125 g/ha ([5]; post-emergence, Postemergence): 100% | pest or weed control at 16 g/ha ([5]; pre-emergence, Preemergence): 90% | pest or weed control at 31 g/ha ([5]; pre-emergence, Preemergence): 100% | pest or weed control at 62 g/ha ([5]; pre-emergence, Preemergence): 100% | pest or weed control at 125 g/ha ([5]; pre-emergence, Preemergence): 100% | pest or weed control at 16 g/ha ([6]; post-emergence, Postemergence): 40% | pest or weed control at 31 g/ha ([6]; post-emergence, Postemergence): 50% | pest or weed control at 62 g/ha ([6]; post-emergence, Postemergence): 80% | pest or weed control at 125 g/ha ([6]; post-emergence, Postemergence): 100% | pest or weed control at 16 g/ha ([6]; pre-emergence, Preemergence): 20% | pest or weed control at 31 g/ha ([6]; pre-emergence, Preemergence): 35% | pest or weed control at 62 g/ha ([6]; pre-emergence, Preemergence): 95% | pest or weed control at 125 g/ha ([6]; pre-emergence, Preemergence): 100% | Plant response rating, Sedge, Umbrella ([7]; 31 g ai/ha): 65 | Plant response rating, Sedge, Umbrella ([7]; 62 g ai/ha): 80 | Plant response rating, Sedge, Umbrella ([7]; 125 g ai/ha): 95 | Plant response rating, Sedge, Umbrella ([7]; 250 g ai/ha): 95 | Plant response rating, Barnyardgrass ([8]; 31 g ai/ha): 0 | Plant response rating, Barnyardgrass ([8]; 62 g ai/ha): 0 | Plant response rating, Barnyardgrass ([8]; 125 g ai/ha): 15 | Plant response rating, Barnyardgrass ([8]; 250 g ai/ha): 35 | Plant response rating, Rice (rice (Oryza sativa); 31 g ai/ha): 0 | Plant response rating, Rice (rice (Oryza sativa); 62 g ai/ha): 15 | Plant response rating, Rice (rice (Oryza sativa); 125 g ai/ha): 25 | Plant response rating, Rice (rice (Oryza sativa); 250 g ai/ha): 40 | Plant response rating, Ducksalad ([9]; 31 g ai/ha): 75 | Plant response rating, Ducksalad ([9]; 62 g ai/ha): 85 | Plant response rating, Ducksalad ([9]; 125 g ai/ha): 90 | Plant response rating, Ducksalad ([9]; 250 g ai/ha): 100
